In publication PMC9667546, “Selective Inhibition of Bruton’s Tyrosine Kinase by a Designed Covalent Ligand Leads to Potent Therapeutic Efficacy in Blood Cancers Relative to Clinically Used Inhibitors” (ACS Pharmacology & Translational Science, 2022):
Several values for one entry are separate records, joined by “and”; a condition that tells them apart may be missing. Equal values may be shown once.

Legend:
Raji cells (BL) = assay: Cell viability assay (CellTiter-Glo), Raji; assay type: cell-based; details: Homo sapiens, 72 h, n = 3
Description: All cell lines were purchased from ATCC, except for DoHH-2 cells that were obtained from DSMZ. Cells were cultivated in complete DMEM supplemented with 10% (vol/vol) FBS (Gibco) and 1% of penicillin/streptomycin (Gibco). The cells were grown in a humidified atmosphere of 5% CO2 at 37°C, with the medium changed every other day.
Cells were inoculated at a density of 5000 cells/well. Serially diluted compounds (starting at 50 μM) were added 24 h later. The assay was performed in triplicates. After 72 h of incubation, cellular viability was assessed by CellTiter-Glo (Promega) according to the manufacturer’s instructions. The values were normalized with the vehicle (DMSO), and the IC50 was calculated using GraphPad Prism 8.

ITK = biological target: T1, ITK (Homo sapiens, UniProt Q08881); assay: NanoBRET in-cell target engagement, ITK; assay type: binding
T1 construct: host or cells: HEK296T (so in the source)
T1 sequence (Q08881 1-620): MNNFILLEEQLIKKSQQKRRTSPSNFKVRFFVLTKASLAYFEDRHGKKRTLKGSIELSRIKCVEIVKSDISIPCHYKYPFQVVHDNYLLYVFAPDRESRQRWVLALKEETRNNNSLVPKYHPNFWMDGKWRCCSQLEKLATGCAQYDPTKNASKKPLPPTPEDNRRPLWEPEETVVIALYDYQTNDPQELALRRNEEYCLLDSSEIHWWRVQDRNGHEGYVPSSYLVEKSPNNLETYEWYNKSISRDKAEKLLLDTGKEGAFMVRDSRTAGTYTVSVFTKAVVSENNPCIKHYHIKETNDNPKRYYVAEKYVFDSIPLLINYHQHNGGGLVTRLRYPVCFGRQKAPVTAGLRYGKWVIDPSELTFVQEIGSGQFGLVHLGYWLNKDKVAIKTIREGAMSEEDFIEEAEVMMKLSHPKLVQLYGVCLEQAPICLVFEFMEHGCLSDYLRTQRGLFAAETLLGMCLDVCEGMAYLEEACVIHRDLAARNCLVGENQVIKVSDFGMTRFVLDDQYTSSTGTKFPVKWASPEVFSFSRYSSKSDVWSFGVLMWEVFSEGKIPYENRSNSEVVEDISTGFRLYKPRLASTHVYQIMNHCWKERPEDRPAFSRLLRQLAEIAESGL
Description: (§1) In-cell target engagement was performed at Reaction Biology Corporation, using NanoBRET technology. Very briefly, HEK296T cells were transfected and treated in duplicate with JS25 for 1 h of incubation. The compound was diluted 10 times with 3-fold dilution, starting at 1 μM. Curve fits were performed only when the % NanoBret signal at the highest concentration of compounds was less than 55%. The IC50 values were determined using GraphPad Prism 8 ([…]).

TXK = biological target: T2, TXK (Homo sapiens, UniProt P42681); assay: NanoBRET in-cell target engagement, TXK; assay type: binding
T2 construct: host or cells: HEK296T (so in the source)
T2 sequence (P42681 1-527): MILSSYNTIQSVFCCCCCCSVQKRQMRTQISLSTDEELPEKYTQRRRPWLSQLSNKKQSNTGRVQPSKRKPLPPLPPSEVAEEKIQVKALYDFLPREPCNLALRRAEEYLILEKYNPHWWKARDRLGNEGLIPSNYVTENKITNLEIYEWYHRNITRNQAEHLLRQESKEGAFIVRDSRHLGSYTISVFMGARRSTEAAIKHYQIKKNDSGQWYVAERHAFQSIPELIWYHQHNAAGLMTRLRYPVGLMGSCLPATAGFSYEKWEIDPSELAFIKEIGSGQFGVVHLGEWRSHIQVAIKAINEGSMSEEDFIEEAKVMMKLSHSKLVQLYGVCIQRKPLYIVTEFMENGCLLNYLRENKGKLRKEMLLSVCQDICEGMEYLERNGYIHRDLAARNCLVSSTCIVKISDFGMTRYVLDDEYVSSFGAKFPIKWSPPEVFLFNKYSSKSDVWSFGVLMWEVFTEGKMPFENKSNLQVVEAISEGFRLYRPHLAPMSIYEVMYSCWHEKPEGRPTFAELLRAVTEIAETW
Description: as §1

Raji cells = assay: Mice xenograft model of Burkitt’s lymphoma (subcutaneous Raji cells); assay type: in vivo; details: for Metastasis volume, Brain, Average / Metastasis volume, Liver, Average / Metastasis volume, Lung, Average / Metastasis volume, Spinal, Average / Secondary tumour, Average: average of 5 animals, stereological analysis; for Metastasis volume, Brain, single animals / Metastasis volume, Liver, single animals / Metastasis volume, Lung, single animals / Metastasis volume, Spinal, single animals / Secondary tumour, single animals: individual animals #1 to #5 in order
Description: (§2) Female adult BALB/c/NSG mice were injected subcutaneously with 1 × 10^6 Raji cells, in a 1:1 solution of Matrigel Matrix (Corning) to create solid tumors. When tumors reached 180 mm^3 on average, mice were randomized into four groups (n = 6/group), and dosing began every 2 days. […] Tumor size and body weight were monitored periodically for 12 days. At the end of the experiment, mice necropsies were performed. Stereological analysis was conducted by the Histopathology Unit at Instituto Gulbenkian de Ciência and by the Comparative Pathology Unit at Instituto de Medicina Molecular João Lobo Antunes. Quantification of metastases and cell necrosis was performed in all groups (n = 5/group). Statistical analysis was conducted using one-way ANOVA. The Dunnet test was used to analyze the statistical significance between the treatment groups and the control.

[1] = Body weight in the mice xenograft model; assay type: in vivo; details: up to 20 mg/kg i.p. every 2 days
Description: as §2

BTK = BTK (Homo sapiens, UniProt Q06187); parameters: purchased Promega Corporation V2941; details: first value of 5.8/28 in Table S3; ref 23 (SI ref 20); read-out: IC50 (potency against BTK), earlier value of JS25; cited from earlier work
Chain of BTK (Q06187 whole entry): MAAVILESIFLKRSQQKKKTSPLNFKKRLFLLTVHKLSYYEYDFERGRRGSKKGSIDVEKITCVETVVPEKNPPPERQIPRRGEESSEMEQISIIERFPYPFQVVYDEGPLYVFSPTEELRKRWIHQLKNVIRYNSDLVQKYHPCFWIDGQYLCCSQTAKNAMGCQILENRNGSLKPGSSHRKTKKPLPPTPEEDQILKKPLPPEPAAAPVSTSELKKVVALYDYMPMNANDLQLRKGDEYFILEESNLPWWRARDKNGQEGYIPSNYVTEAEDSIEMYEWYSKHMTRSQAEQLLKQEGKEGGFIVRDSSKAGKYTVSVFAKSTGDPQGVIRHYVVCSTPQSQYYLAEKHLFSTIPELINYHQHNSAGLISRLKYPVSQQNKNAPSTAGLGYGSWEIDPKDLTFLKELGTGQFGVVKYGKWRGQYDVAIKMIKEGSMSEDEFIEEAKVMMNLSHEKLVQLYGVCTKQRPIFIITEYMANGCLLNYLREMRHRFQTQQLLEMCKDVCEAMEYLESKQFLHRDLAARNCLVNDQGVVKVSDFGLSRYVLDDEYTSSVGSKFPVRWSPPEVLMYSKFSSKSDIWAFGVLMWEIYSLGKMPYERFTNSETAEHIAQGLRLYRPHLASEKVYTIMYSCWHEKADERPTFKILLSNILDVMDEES

[2] = HEK296T cells, 1 h incubation, average of duplicates

IC50 (Raji cells (BL)): 2.3 µM | selectivity for BTK relative to ITK (ITK): 15 fold | IC50 (ITK; [2]): 0.44 µM | selectivity (kinase/BTK), ITK (ITK; IC50 kinase/IC50 BTK): 15.4 | selectivity for BTK relative to TXK (TXK): ~7 fold | IC50 (TXK; [2]): 0.19 µM | selectivity (kinase/BTK), TXK (TXK; IC50 kinase/IC50 BTK): 6.7
SMILES: C=CC(=O)Nc1cc(C)cc(-n2c(=O)ccc3cnc4ccc(-c5ccc(NS(C)(=O)=O)cc5)cc4c32)c1 [JS25]
Metastasis volume, Brain, Average (Raji cells; 10 mg/kg): 1.13 mm³ | Metastasis volume, Liver, Average (Raji cells; 10 mg/kg): 27.34 mm³ | Metastasis volume, Lung, Average (Raji cells; 10 mg/kg): 26.04 mm³ | Metastasis volume, Spinal, Average (Raji cells; 10 mg/kg): 87.31 mm³ | Secondary tumour, Average (Raji cells; 10 mg/kg): 16.88 mm³ | Metastasis volume, Brain, single animals (Raji cells; 10 mg/kg): 0.92 mm³ and 0.98 mm³ and 2.33 mm³ and 0.15 mm³ and 1.27 mm³ | Metastasis volume, Liver, single animals (Raji cells; 10 mg/kg): 0.00 mm³ (2×) and 9.94 mm³ and 83.71 mm³ and 43.05 mm³ | Metastasis volume, Lung, single animals (Raji cells; 10 mg/kg): 0.00 mm³ (4×) and 130.18 mm³ | Metastasis volume, Spinal, single animals (Raji cells; 10 mg/kg): 18.31 mm³ and 109.42 mm³ and 122.01 mm³ and 88.70 mm³ and 98.09 mm³ | Secondary tumour, single animals (Raji cells; 10 mg/kg): 0.00 mm³ (4×) and 84.38 mm³ | reduction in percentage of metastases (Raji cells; 20 mg/kg i.p. every 2 days, n = 5/group): 70% | Metastasis volume, Brain, Average (Raji cells; 20 mg/kg): 0.26 mm³ | Metastasis volume, Liver, Average (Raji cells; 20 mg/kg): 1.34 mm³ | Metastasis volume, Lung, Average (Raji cells; 20 mg/kg): 0.00 mm³ | Metastasis volume, Spinal, Average (Raji cells; 20 mg/kg): 27.10 mm³ | Secondary tumour, Average (Raji cells; 20 mg/kg): 37.98 mm³ | Metastasis volume, Brain, single animals (Raji cells; 20 mg/kg): 0.44 mm³ and 0.03 mm³ and 0.82 mm³ and 0.00 mm³ (2×) | Metastasis volume, Liver, single animals (Raji cells; 20 mg/kg): 0.00 mm³ and 2.00 mm³ and 3.35 mm³ and 0.64 mm³ and 0.70 mm³ | Metastasis volume, Lung, single animals (Raji cells; 20 mg/kg): 0.00 mm³ | Metastasis volume, Spinal, single animals (Raji cells; 20 mg/kg): 36.97 mm³ and 12.59 mm³ and 70.62 mm³ and 14.65 mm³ and 0.69 mm³ | Secondary tumour, single animals (Raji cells; 20 mg/kg): 0.00 mm³ and 91.12 mm³ and 86.92 mm³ and 8.82 mm³ and 3.06 mm³ | reduction in secondary tumor formation (Raji cells; JS25 10 and 20 mg/kg i.p. every 2 days, n = 5/group): 71–88% | reduction in solid (subcutaneous) tumor size (Raji cells; JS25 10 and 20 mg/kg i.p. every 2 days, relative to control): 30–40% | body weight fluctuation by the end of the treatment [1]: no weight fluctuations were observed | IC50 (BTK): 0.0058 µM
